According to patent US20260232759A1, “PEPTIDES THAT INHIBIT INFECTION BY SARS-COV-2, THE VIRUS THAT CAUSES COVID-19 DISEASE” (Wisconsin Alumni Research Foundation, priority 2021, published 2026):
Starred links: 1 amine or outer side, 2 acyl side, 3 side chain; linkers in the order of their positions; H or OH if unused. Non-standard residues stand in square brackets, D forms with d. *: point of attachment. X2 = CC(C)CCC[C@@H](C)[C@H]1CC[C@H]2[C@@H]3CC=C4C[C@@H](OC(=O)CCOCCOCCOCCOCCNC(=O)C*)CC[C@]4(C)[C@H]3CC[C@]12C; X1 = O=C([C@H]1CNC[C@@H]1N[*:1])[*:2]; β3hE = N[C@@H](CCC(=O)O)CC(=O)O; β3hQ = NC(=O)CC[C@H](N)CC(=O)O; β3hD = NC(CC(=O)O)CC(=O)O; βAla = NCCC(=O)O

Target: T1, SARS-CoV-2 S (Severe acute respiratory syndrome coronavirus 2, UniProt P0DTC2)
T1 construct: expressed in transfected cells
Assay: β-Gal complementation-based cell-cell fusion assay (S-protein-mediated fusion)
Conditions: for IC90: read-out: 90% inhibitory concentration (IC90), inhibition of S-mediated fusion

[1] = 50% inhibitory concentration (IC50), inhibition of S-mediated fusion
[2] = IC50, inhibition of S-mediated fusion

Substance	IC50 [1] [nM]	IC90 [nM]	IC50 [2] [nM]
Ac-[β3hD]IS[β3hQ]INASVVNIEYEIKKLEEVA[X1]KLEESLI[β3hD]L[β3hQ]ELGSGSGC(X2)-NH2 [α/β-SARS2 HRC QE-6]	~20	~100	–
Ac-[β3hD]IS[β3hQ]INASVVNIEYEI[X1]KLEEVAKKLEESLI[β3hD]L[β3hQ]ELGSGSGC(X2)-NH2 [α/β-SARS2 HRC QE-5]	~1000	–	–
Ac-[β3hD]IS[β3hQ]INASVVNIEYEI[X1]KLEEVA[X1]KLEESLI[β3hD]L[β3hQ]ELGSGSGC(X2)-NH2 [α/β-SARS2 HRC QE-7]	~20	~100	~10
Ac-[β3hD]IS[β3hQ]INASVVNIEYEI[X1]KLEEVA[X1]KLEESLI[β3hD]L[β3hQ]EL[βAla]SGS[βAla]C(X2)-NH2 [α/β-SARS2 HRC QE-17]	–	–	~10
Ac-[β3hD]IS[β3hQ]INASVVNIEYEI[X1]KLEEVA[X1]KLE[β3hE]SLI[β3hD]L[β3hQ]ELGSGSGC(X2)-NH2 [α/β-SARS2 HRC QE-8]	~100	–	–
Ac-[β3hD]IS[β3hQ]INASVVNI[β3hE]YEI[X1]KLEEVA[X1]KLEESLI[β3hD]L[β3hQ]EL[βAla]SGS[βAla]C(X2)-NH2 [α/β-SARS2 HRC QE-15]	–	–	~50
